Laboratory results taken from US20210196730A1, “COMPOUND AND USE THEREOF” (priority 2018, published 2021).
Where two headings read alike, the source gives them in different places.

Assays:
[1] = tested on: pancreatic stellate cells and pancreatic cancer cells; experiment: Smooth actin and collagen in co-cultured pancreatic stellate cells and pancreatic cancer cells (immunofluorescence); format: cell-based, KPC mice; conditions: co-culture 1:1, 24 hours; TP 10 nM, Cal 100 nM, TP/Cal 10/100 nM, Callide^NP 100 nM
Text: (§1) Experimental materials: pancreatic stellate cells and pancreatic cancer cells cultured in transgenic mice. Among them, pancreatic cancer cells were transfected with luciferase gene by lentivirus transfection method.
(§2) Experimental method: in vitro co-culture, immunofluorescence histochemical analysis
(§3) Experimental process: the tumor tissues were taken from KPC mice that spontaneously developed with tumors, and the tumor tissues were dissected, and primary pancreatic stellate cells and pancreatic cancer cells were isolated by physical in vitro disruption and enzymatic hydrolysis, and cultured.
Pancreatic stellate cells and pancreatic cancer cells were cultured in a 12-well plate at a ratio of 1:1, with a total of 100,000 cells per well, using TP (10 nM), Cal (100 nM), treated with TP/Cal (10/100 nM), and Callide^NP (100 nM), and incubated for 24 hours, and then the contents of smooth actin and collagen of the cells in each well were analyzed with immunofluorescence staining.

[2] = tested on: pancreatic stellate cells; experiment: Smooth actin and collagen in pancreatic stellate cells alone (immunofluorescence); format: cell-based, KPC mice; conditions: 24 hours, TP 10 nM, Cal 100 nM, TP/Cal 10/100 nM, Callide^NP 100 nM
Text: as §1, §2, §3
Pancreatic stellate cells alone were cultured in a 12-well plate, 100,000 cells per well, treated with TP (10 nM), Cal (100 nM), TP/Cal (10/100 nM), Callide^NP (100 nM) for 24 hours, and then contents of smooth actin and collagen of the cells in each well were analyzed with immunofluorescence staining.

[3] = tested on: pancreatic stellate cells and pancreatic cancer cells co-implanted orthotopic model; format: in vivo; conditions: for tumor suppression effect: TP 0.3, Cal 0.35, TP/Cal 0.3/0.35, Callide^NP 0.6 mg/kg, once every two days, 7 times
Protocol: Experimental materials: pancreatic stellate cells, pancreatic cancer cells transfected with luciferase; nude mice: strain Blab/C nude, 6-8 weeks old.
Experimental method: suspensions of pancreatic stellate cells and luciferase-transfected pancreatic cancer cells were mixed uniformly at a ratio of 1:1, and inoculated into the pancreas at a density of 10,000 cells/40 μL with an inoculation volume of 40 μL.
Experimental process: the two kinds of cells were digested and centrifuged, resuspended with PBS and mixed at a ratio of 1:1, and then the cell mixture was mixed with Matrigel at a ratio of 1:1 and pipetted uniformly. Nude mice underwent relevant operations under the premise of review by the Ethics Committee of Tsinghua University. […], of the uniformly pipetted cell suspension was injected into the pancreas with an insulin needle, the wound was sutured, and a sedative was injected subcutaneously. About one week after the cell injection, each mouse was intraperitoneally injected with 0.1 ml of […] solution. After 10 min, the mice were anesthetized with isoflurane, and an intensity of the fluorescent signal in the pancreas of the mice was detected with a live imaging system for small animal. Subsequently, the mice were randomly divided into groups, 7 mice in each group, and TP (0.3 mg/kg), Cal (0.35 mg/kg), TP/Cal (0.3/0.35 mg/kg), and Callide^NP (0.6 mg/kg) were administrated, respectively, once every two days for a total of 7 times. After each administration, the mice were weighed. After 4 times of administration, the intensity of the fluorescent signal in the pancreas of mice was detected with the live imaging system for small animal. After the administrations were all finished, the intensity of the fluorescent signal in the pancreas of the mice was detected again with the live imaging system for small animal, while recording a survival rate of mice. After the experiment, the tumor tissues of the mice were taken, and an expression of smooth actin and collagen in the tumor tissues was detected by tissue immunofluorescence staining (the experiment results are shown in FIG. 6).

MIA PaCa-2 cell line = experiment: In vivo anti-tumor effect, mouse subcutaneous tumor model based on MIA PaCa-2; conditions: for anti-tumor effect (tumor growth): compared with saline, TP 0.3, Cal 0.3, TP/Cal 0.3/0.35, Callide^NP 0.3 mg/kg (as TP), tail vein once a week
Protocol: Experimental Material: MIA PaCa-2 Cell Line
Experimental method: establishing a mouse subcutaneous tumor model based on the MIA PaCa-2 cell line, and evaluating an inhibitory effect on tumor as well as toxic and side effect of each compound of the experimental group after administration.
Experimental process: 0.1 ml of MIA PaCa-2 cell suspension was injected into axilla of the mice, and the growth of tumor was monitored. […] Dosages of administration: TP (0.3 mg/kg), Cal (0.3 mg/kg), TP/Cal (0.3/0.35 mg/kg), Callide^NP (0.3 mg/kg, administration dosage after it was theoretically completely degraded to TP), administered via tail vein injection once a week. The tumor size was measured every two days.

[4] = tested on: pancreatic cancer cell lines MIA PaCa-2, PANC-1, SW1990, and SW1990-GEM; experiment: Cytotoxicity experiment of Callide (DNA assay method); format: cell-based; conditions: 24 h
Protocol: Experimental materials: four pancreatic cancer cell lines, i.e., MIA PaCa-2, PANC-1, SW1990, and SW1990-GEM. Whole cell culture medium, microplate reader
Experimental Method: DNA Assay Method
Experimental process: pancreatic cancer cells were cultured, digested, resuspended into a cell suspension with medium, and seeded into 96-well plates, with 4000 cells per well. The experimental components are […], i.e., TP group, Cal group, TP and Cal physical mixed group (TP/Cal), Callide-DMSO without esterase group (Callide without PLE), Callide-DMSO with 10 U esterase group (Callide with 10 U PLE), Callide^NP without esterase group (Callide^NP without PLE), and Callide^NP with 10 U esterase group (Callide^NP with 10 U PLE). For each group, 8 concentrations of 5 nM, 10 nM, 20 nM, 40 nM, 80 nM, 100 nM, 200 nM, and 400 nM were prepared, and each concentration was repeated in six wells. After 24 h of administration, the drug solution was removed by suction, washed with PBS twice, added […], analyzed by a microplate reader, and plotted a relative survival rate curve of cells to calculate an IC50 of each compound.

[5] = Rat PK experiment of Callide^NP (chromatography-mass spectrometry); format: in vivo; conditions: SD rats, Callide^NP 0.3 and 0.6 mg/kg; for concentration of free TP in plasma / plasma half-life: TP 0.3 mg/kg
Protocol: Experimental materials: rats, strain SD, 6-9 weeks old. Analytical instruments: Agilent 1290/6460 triple quadrupole mass spectrometer, made in the United States.
Experimental Method: Chromatography-Mass Spectrometry
Experimental process: 12 SD rats were randomly divided into 4 groups, with 3 rats in each group. TP (0.3 mg/kg), TP/Cal (0.3/0.35 mg/kg), Callide^NP (0.3 mg/kg), Callide^NP (0.6 mg/kg) were administered respectively. 300 μl of blood of each rat was collected through the orbit at 5 min, 15 min, 30 min, 1 h, 2 h, 4 h, and 8 h, respectively, centrifuged at 10000 rpm at 4° C., and the supernatant plasma was collected. The plasma was extracted with ethyl acetate/water, vortexed, sonicated, centrifuged at 4° C., the supernatant was evaporated to dryness under the protection of nitrogen, and then dissolved in mobile phase acetonitrile/water. After centrifugation, the supernatant was taken and injected.

[6] = tested on: humanized pancreatic cancer tissue; experiment: In vivo anti-tumor effect, mouse subcutaneous tumor model of humanized pancreatic cancer tissue
Protocol: Experimental material: humanized pancreatic cancer tissue
Experimental method: establishing a mouse subcutaneous tumor model based on humanized pancreatic cancer tissue
Experimental process: a mouse subcutaneous tumor model of humanized pancreatic cancer tissue was established, TP (0.3 mg/kg) and Callide^NP (0.3 mg/kg, administration dosage after it was theoretically completely degraded to TP) were administrated via tail vein injection, once a day. One week later, the dosage of Callide^NP was increased to 0.6 mg/kg.

[7] = Toxicity experiment on mice in short- and long-term administration; conditions: mouse, in vivo
Protocol: Experimental Material: BALB/C Mice
Experimental method: BALB/C mice were divided into 5 groups, including a saline control group and four drug administration groups of TP, Cal, TP/Cal, and Callide^NP groups. 5 mice in the control group, and 5 mice for each of 3 dosages, i.e., high, medium and low dosages in each experimental group, for a total of 65 mice. Dosages of administration: TP (0.3 mg/kg, 0.6 mg/kg, 1.2 mg/kg); Cal (0.6 mg/kg, 1.2 mg/kg, 1.8 mg/kg); TP/Cal (0.6 mg/kg, 1.2 mg/kg, 1.8 mg/kg); and Callide^NP (0.6 mg/kg, 1.2 mg/kg, 1.8 mg/kg), were administered once a week via tail vein injection.

porcine liver esterase = experiment: In vitro degradation experiment of Callide (HPLC); format: in vitro ADME; conditions: absence of porcine liver esterase
Protocol: Experimental materials: phosphate buffer (PBS, Ph=7.2 to 7.4), porcine liver esterase, high performance liquid chromatography (HPLC)
Experimental Method: HPLC Method
Experimental process: 5 microliters of 1 mg/ml Callide (ethanol solution for solubilizing) in 5 ml of PBS buffer with or without porcine liver esterase, and stirred at 37 degrees Celsius for 1 min, 5 min, 10 min, 30 min, 1 h, 2 h, 4 h, 8 h, 12 h, 24 h, 48 h, respectively, 200 microliters of the solution were taken, filtered, and a concentration of Callide or calcipotriol in the solution was determined by HPLC.

In the case of `C=C1/C(=C\C=C2/CCC[C@@]3(C)C2CCC3[C@@H](C)/C=C/[C@@H](O)C2CC2)C[C@@H](O)C[C@@H]1O` (some centres unmarked) [Cal, calcipotriol], the “expression levels of related proteins (smooth actin and collagen)” value [1] is reported as “significantly reduced”, the “contents of smooth actin and collagen” value [2] is reported as “decreased” and the tumor suppression effect [3] is reported as “no tumor suppression effect”. The “survival rate of mice” value ([3]; compared with the control group) was “no significant difference”, the “fluorescent signal of pancreatic cancer cells” value ([3]; live imaging, compared with the control group) was “no significant difference” and the “toxic reactions / adverse states after administration” value (mouse, in vivo) was “none of the mice in the Cal group showed the above-mentioned adverse symptoms”. The “anti-tumor effect (tumor growth)” value (MIA PaCa-2 cell line) was “no anti-tumor effect” and the “killing effect on cancer cells” value ([4]; within the dosage range studied (5 nM to 400 nM)) was “no killing effect on cancer cells”.
For `C=C1/C(=C\C=C2/CCC[C@@]3(C)C2CCC3[C@@H](C)/C=C/C(OC(=O)CCC(=O)O[C@@H]2[C@@]3(C(C)C)O[C@H]3[C@@H]3O[C@]34[C@]23O[C@H]3C[C@H]2C3=C(CC[C@@]24C)C(=O)OC3)C2CC2)C[C@@H](O)C[C@@H]1O` (some centres unmarked) [Callide], the “average plasma residence time” value [5] was “prolonged”, the “concentration of free TP in plasma” value [5] was “significantly reduced” and the plasma half-life [5] was “prolonged”. The “apoptosis of tumor cells” value ([6]; immunohistochemical staining) was “accompanied by apoptosis of tumor cells”, the “fibrin content of the tumor tissue” value ([6]; immunohistochemical staining) was “significantly reduced” and the “long-term toxicity compared with TP” value [7] was “significantly reduced”. The “degradation of Callide” value (porcine liver esterase; PBS, 37 degrees Celsius) was “could not be degraded”, the “concentration of Callide in the solution” value (porcine liver esterase; time extended to 48 h) was “remained unchanged” and the cell killing effect ([4]; with 10 U porcine liver esterase) was “produce cell killing effect”. For the same compound, the “toxic and side effects on cells” value ([4]; without the addition of esterase) was “no toxic and side effects on cells”.
For `CC(C)[C@]12O[C@H]1[C@@H]1O[C@]13[C@]1(O[C@H]1C[C@H]1C4=C(CC[C@@]13C)C(=O)OC4)[C@@H]2O` [TP, triptolide], the “expression levels of related proteins (smooth actin and collagen)” value [1] was “did not change significantly”, the “concentration of free TP in plasma” value [5] was “high” and the plasma half-life [5] was “short”. The “contents of smooth actin and collagen” value [2] was “not significantly different”, the toxicity ([3]; TP 0.3 mg/kg) was “obvious toxicity” and the tumor suppression effect [3] was “insignificant tumor suppression effect”. For the same compound, the deaths ([3]; after seven administrations, TP 0.3 mg/kg) was “one mouse died”, the “body weight of the mice” value ([3]; mouse, in vivo) was “significantly reduced” and the “inhibitory effect on tumor growth” value ([6]; first week, 0.3 mg/kg once a day via tail vein) was “significant inhibitory effect on tumor growth”. The mortality (1.8 mg/kg, single administration) was “all mice died after a single administration”, the “morphology of spermatogonia and spermatocytes” value (TP group) was “severely damaged” and the “organs (anatomical results)” value (TP group) was “different degrees of necrosis”. For the same compound, the “relative weight of the testis” value (TP group) was “significantly reduced”, the body weight (especially 1.2 mg/kg of TP) was “lost their weight significantly” and the “skin at the injection site on the tail” value (especially 1.2 mg/kg of TP) was “severe skin ulceration”. For the same compound, the “toxic reactions / adverse states after administration” value (high, medium and low dosages, once a week via tail vein injection) was “obvious toxic reactions”, the “anti-tumor effect (tumor growth)” value (MIA PaCa-2 cell line) was “inhibits tumor growth more effectively than Callide^NP” and the “tumor size relative to other groups” value (MIA PaCa-2 cell line; mouse, in vivo) was “smaller than that of the TP/Cal and Callide^NP groups”. For the same compound, the tumor weight (MIA PaCa-2 cell line; tumors isolated and weighed after dissection) was “significantly less weight than the control group” and the IC50 ([4]; Pancreatic cancer cell, all four types of pancreatic cancer cells) was 20 nM.
